Measurements as given in patent publication US12286452B2, “Amphiphilic aminoglycoside connexin hemichannel inhibitors” (Texas Tech University System, priority 2018, dated 2025).
In brackets after ≈: the same amount, converted by molar mass. Where two headings read alike, the source gives them in different places.

Key:
Type in all cases: cell-based
human Cx26 HCs = target: T1, human Cx26 HCs (Homo sapiens, UniProt P29033); assay: Cx26-dependent growth complementation assay in E. coli LB2003; conditions: for IC50: first Table 2, read-out: IC50, inhibition of Cx26 by synthetic AGs
T1 construct: expressed in transfected cells; host or cells: E. coli LB2003 (carrying pREP4), transformed with pQE-Cx26, IPTG-induced
Experimental: These derivatives were prepared by sequential benzylation and methylation followed by reduction of azido groups or hydrogenolysis of the Bn. […] Connexin HC inhibition was conducted using a bacteria-based assay of HC function^39. In this assay, Cx26 HCs are expressed in E. coli LB2003 cells, which lack three major K^+ uptake systems (Kdp, Kup and Trk), and as a result they cannot grow in low-[K^+] media^39-41. However, growth of this E. coli strain in low-[K^+] medium can be rescued by expression of K^+-permeable channels such as connexin HCs^39, 42-43. Under the conditions of the assay (LB2003 cells expressing HCs and grown in low-K^+ medium), inhibition of the HCs reduces or abolishes growth^39, 42-43. This is a simple assay where bacterial growth in multi-well plates can be followed by measuring the absorbance at 600 nm (OD600)^29.
LB2003 cells generously provided by Dr. E. P. Bakker (Osnabruk University, Osnabruk, Germany) were transformed with the plasmid pQE-Cx26 (human Cx26 into pQE60) and pREP4. […] LB2003 cells cannot grow in low-[K^+] media because of insufficient K^+ uptake for growth due to the knockout of three key K^+ transporters (Atrk, Akup, Akdp strain)^2-4. Details and validation of the growth complementation assay have been published recently^2. In brief, competent LB2003 containing the pREP4 plasmid were transformed with pQE-Cx26. These cells were grown overnight in Luria-Bertani medium (BD, Franklin Lakes, NJ, USA) supplemented with 100 mM KCl (to allow growth) and 0.4 mg/mL ampicillin, and then washed four times with NLM (see below), to remove residual K^+ from the Luria-Bertani medium. The washed cells were resuspended in complementation growth medium to an OD600 of 0.2. NLM contained 46 mM Na2HPO4, 23 mM NaH2PO4, 8 mM (NH4)2SO4, 0.4 mM MgSO4, 0.012 mM FeSO4, 1 mM sodium citrate, 44 mM glucose and 0.006 mM thiamine hydrochloride, pH 7.0. KLM had the same composition that NLM except for the equimolar replacement of Na^+ with K^+. For growth complementation we used NLM+4 mM KCl, and Cx26 expression was induced with 0.5 mM IPTG at the time of dilution to OD600=0.2. For the assay, the cells were seeded in 96-well plates and were incubated at 30° C., with shaking at 500 rpm. OD600 was measured after 18-h incubation in a plate reader. The initial OD600=0.2 was subtracted for growth calculations. Data are presented as means±SEM. Statistically significant differences were calculated by the Student t-test for unpaired data. Data were obtained from at least 3 independent experiments, with 3 repeats per experiment.

Cx43 HCs = target: T2, Cx43 HCs (Homo sapiens, UniProt P17302); assay: Cx43-dependent growth complementation assay in E. coli LB2003
T2 construct: expressed in transfected cells

[1] = system: Staphylococcus aureus (ATCC25923); assay: Antibacterial assay (MIC); conditions: read-out: MIC against S. aureus
Experimental: Antibacterial assay: The minimum inhibitory concentration (MIC) of the newly synthesized compounds was tested against E. coli (ATCC 25922) and Staphylococcus aureus (ATCC25923). The concentration of bacteria grown in Lysogeny Broth (LB) was adjusted to an absorbance at 600 nm (OD600) of 0.08-0.1 using LB. A series of 2-fold dilutions was made for each compound in 96-well plates (USA Scientific CC7682-7596) starting from 256 μg/mL, and then, 50 μL of the diluted bacteria suspension was transferred to the wells. Bacteria were incubated for 18-24 h at 35° C. before measuring OD600 to assess growth. Experiments for each compound were done at least in duplicates.

[2] = K46 members, the 20th table, read-out: IC50 (μM) against Cx43

T2 sequence (P17302 whole entry): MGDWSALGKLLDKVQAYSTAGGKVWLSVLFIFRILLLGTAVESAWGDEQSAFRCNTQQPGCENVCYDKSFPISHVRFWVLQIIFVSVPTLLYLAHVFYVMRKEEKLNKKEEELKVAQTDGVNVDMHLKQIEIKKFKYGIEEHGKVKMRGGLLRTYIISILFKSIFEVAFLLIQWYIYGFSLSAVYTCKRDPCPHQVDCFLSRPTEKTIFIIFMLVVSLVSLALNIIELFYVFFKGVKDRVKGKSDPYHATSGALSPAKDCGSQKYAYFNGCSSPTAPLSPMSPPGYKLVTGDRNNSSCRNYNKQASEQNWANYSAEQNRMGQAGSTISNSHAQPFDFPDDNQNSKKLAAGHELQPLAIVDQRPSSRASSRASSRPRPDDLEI

| Compound | IC50 (human Cx26 HCs) [µM] | IC50 (Cx43 HCs; [2]) [µM] | Cx43 Imax (maximal inhibition) (Cx43 HCs; the 12th table, Hill fit) [%] | IC50 (Cx43 HCs; the 12th table, Hill fit, mean ± SEM, some n = 1, read-out: Cx43 IC50) [µM] | MIC [1] [mg/mL] | Cx26 Imax (human Cx26 HCs; the 13th table) [%] | Cx43 Imax (Cx43 HCs; the 13th table) [%] | IC50 (Cx43 HCs; the 13th table, read-out: Cx43 IC50) [µM] |
| --- | --- | --- | --- | --- | --- | --- | --- | --- |
| NCC1OC(OC2C(N)CC(N)C(OC3OC(COCc4cccc5ccccc45)C(OCc4cccc5ccccc45)C(N)C3O)C2O)C(O)C(O)C1O (centres unmarked) [Compound 15, 4″,6″-Di-O-(1-naphthalenmethyl) kanamycin] | 6.6 ± 0.5 | 15 | 122 | 15 | 64 (≈ 83.7 mM) |  |  |  |
| NCC1OC(OC2C(N)CC(N)C(OC3OC(COCc4cccc(-c5ccccc5)c4)C(OCc4cccc(-c5ccccc5)c4)C(N)C3O)C2O)C(O)C(O)C1O (centres unmarked) [Compound 16, 4″,6″-Di-O-(3-phenylbenzyl)-kanamycin] | 6.2 ± 0.7 | 5.5 ± 2 |  |  | 16 (≈ 19.6 mM) | 102 ± 2 | 121 ± 25 | 5.5 ± 2 |
